Reference: ChEMBL document CHEMBL1129576, “Nucleosides and nucleotides. 158. 1-(3-C-ethynyl-beta-D-ribo-pentofuranosyl)-cytosine, 1-(3-C-ethynyl-beta-D-ribo-pentofuranosyl)uracil, and their nucleobase analogues as new potential multifunctional antitumor nucleosides with a broad spectrum of activity” (J Med Chem, 1996)

Assays:
KB = experiment: In vitro tumor cell growth inhibitory activity against human nasopharyngeal KB cell lines; format: functional, cell-based
L1210 = experiment: In vitro tumor cell growth inhibitory activity against mouse leukemia L1210 cell lines.; format: functional, cell-based
NAKAJIMA = experiment: In vitro tumor cell growth inhibitory activity against Human stomach (adenocarcinoma) cell lines. h) NAKAJIMA; format: functional, cell-based
Mus musculus [1] = experiment: In vivo tumor cell growth inhibitory activity against CO-3 tumor xenograft of colon in nude mice at a concentration of 0.25 mg/kg for 10 days; format: functional
fLS = experiment: In vitro tumor cell growth inhibitory activity of Human stomach (adenocarcinoma) cell lines. fLS; format: functional, cell-based
PANC-1 = experiment: In vitro tumor cell growth inhibitory activity against Human pancreas (adenocarcinoma) cell lines. PANC-1; format: functional, cell-based
HT-1080 = experiment: In vitro tumor cell growth inhibitory activity against Human fibrosarcoma HT1080 cell lines.; format: functional, cell-based
KK-47 cell line = experiment: In vitro tumor cell growth inhibitory activity against Human bladder carcinoma cell lines. kK-47; format: functional, cell-based
A-375 = experiment: In vitro tumor cell growth inhibitory activity against Human melanoma cell lines A375; format: functional, cell-based
MKN-45 (Homo sapiens) = experiment: In vitro tumor cell growth inhibitory activity against Human stomach (adenocarcinoma) cell lines. MKN-45
Mus musculus [2] = experiment: In vivo tumor cell growth inhibitory activity against KM12C tumor xenograft of […] in nude mice at a concentration of 0.25 mg/kg for 10 days; format: functional
QG-56 = experiment: In vitro tumor cell growth inhibitory activity against Human lung squamous-cell carcinoma cell linesQG-56; format: functional, cell-based
Mus musculus [3] = experiment: In vivo inhibitory activity against H-31 cells tumor xenograft of breast in nude mice at a concentration of 0.25 mg/kg for 10 days; format: functional
QG-96 = experiment: In vitro tumor cell growth inhibitory activity against Human lung small-cell carcinoma cellb) QG-96; format: functional, cell-based
Mus musculus [4] = experiment: In vivo tumor cell growth inhibitory activity against NUGC-3 tumor xenograft of stomach in nude mice at a concentration of 0.25 mg/kg for 10 days; format: functional
PC-9 = experiment: In vitro tumor cell growth inhibitory activity against Human lung (adenocarcinoma) cell lines PC-9; format: functional, cell-based
T-24 = experiment: In vitro tumor cell growth inhibitory activity against Human bladder carcinoma cell lines. T24; format: functional, cell-based
A-431 = experiment: In vitro tumor cell growth inhibitory activity against Human […] A431 cell lines; format: functional, cell-based
Mus musculus [5] = experiment: In vivo inhibitory activity against PAN-12 tumor xenograft of pancreas in nude mice at a concentration of 0.25 mg/kg for 10 days; format: functional
Lu-65 = experiment: In vitro tumor cell growth inhibitory activity against Human lung large-cell carcinoma Lu-65 cell lines.; format: functional, cell-based
COLO 320DM = experiment: In vitro tumor cell growth inhibitory activity against i Human colon (adenocarcinoma) cell lines. COLO 320DM; format: functional, cell-based
NCI-H417 = experiment: In vitro tumor cell growth inhibitory activity against Human lung small-cell carcinoma cell NCI-H-417; format: functional, cell-based
Mus musculus [6] = experiment: In vivo tumor cell growth inhibitory activity of H-81 tumor xenograft of stomach in nude mice at a concentration of 0.25 mg/kg for 10 days; format: functional
NCI-H82 (Homo sapiens) = experiment: In vitro tumor cell growth inhibitory activity against Human lung small-cell carcinoma cellc) NCI-H-82
ST-KM-1 = experiment: In vitro tumor cell growth inhibitory activity against Human stomach (adenocarcinoma) cell linesST-KM; format: functional, cell-based
Mus musculus [7] = experiment: In vivo inhibitory activity against Hucc-T1 cells tumor xenograft of bile duct in nude mice at a concentration of 0.25 mg/kg for 10 days; format: functional
MKN-28 = experiment: In vitro tumor cell growth inhibitory activity against Human stomach (adenocarcinoma) cell lines. MKN-28; format: functional, cell-based
YMB-1-E = experiment: In vitro tumor cell growth inhibitory activity against Human breast (adenocarcinoma) cell lines YMB-1-E.; format: functional, cell-based
HOS = experiment: In vitro tumor cell growth inhibitory activity against Human osteosarcoma cell lines. HOS; format: functional, cell-based
NUGC-4 = experiment: In vitro tumor cell growth inhibitory activity of Human stomach (adenocarcinoma) cell lines. NUGC-4; format: functional, cell-based
Mus musculus [8] = experiment: In vivo tumor cell growth inhibitory activity of CO-3 tumor xenograft of […] in nude mice at a concentration of 0.25 mg/kg for 10 days; format: functional
Mus musculus [9] = experiment: In vivo inhibitory activity against DLD-1 tumor xenograft of colon in nude mice at a concentration of 0.25 mg/kg for 10 days; format: functional
[10] = In vitro tumor cell growth inhibitory activity against Human stomach (adenocarcinoma) cell lines STSA-1
PC-8 = experiment: In vitro tumor cell growth inhibitory activity against Human lung (adenocarcinoma) cell lines. PC-8; format: functional, cell-based
SW480 = experiment: In vitro tumor cell growth inhibitory activity against i Human colon (adenocarcinoma) cell lines. SW-480; format: functional, cell-based
MCF7 = experiment: In vitro tumor cell growth inhibitory activity against Human breast (adenocarcinoma) cell lines. MCF-7; format: functional, cell-based
PC10 = experiment: In vitro tumor cell growth inhibitory activity against Human lung (adenocarcinoma) cell lines PC-10; format: functional, cell-based
MDA-MB-231 = experiment: In vitro tumor cell growth inhibitory activity against Human breast (adenocarcinoma) cell lines. […]; format: functional, cell-based
SW48 = experiment: In vitro tumor cell growth inhibitory activity against i Human colon (adenocarcinoma) cell lines. SW-48; format: functional, cell-based
[11] = test system: KATO III stomach cancer cell line; experiment: In vitro tumor cell growth inhibitory activity of Human stomach (adenocarcinoma) cell lines. KATO-III; format: functional, cell-based
Mus musculus [12] = experiment: In vivo inhibitory activity against JRC-11 cells tumor xenograft of renal in nude mice at a concentration of 0.25 mg/kg for 10 days; format: functional
[13] = test system: MIA PaCa-2 (Homo sapiens); experiment: In vitro tumor cell growth inhibitory activity against Human pancreas (adenocarcinoma) cell Mia-PaCa-2
[14] = In vitro tumor cell growth inhibitory activity against Human lung squamous-cell carcinoma cell lines QG-95; format: functional
QG-90 = experiment: In vitro tumor cell growth inhibitory activity against Human lung small-cell carcinoma cell lines. QG-90; format: functional, cell-based
MG-63 = experiment: In vitro tumor cell growth inhibitory activity against Human osteosarcoma cell lines MG-63.; format: functional, cell-based
HCT-15 = experiment: In vitro tumor cell growth inhibitory activity against HCT-15; format: functional, cell-based; conditions: Homo sapiens

Structure (SMILES): C#C[C@@]1(O)[C@@H](CO)O[C@@H](n2cnc3c(N)ncnc32)[C@@H]1O
- IC50 (KB): 830 nM
- IC50 (L1210): 690 nM

Structure (SMILES): C#C[C@]1(O)[C@@H](CO)O[C@@H](n2ccc(N)nc2=O)[C@@H]1O
- IC50 (KB): 28 nM
- IC50 (NAKAJIMA): 170 nM
- Inhibition ratio (Mus musculus [1]): 88%
- IC50 (fLS): 21 nM
- IC50 (PANC-1): > 1900 nM
- IC50 (HT-1080): 73 nM
- IC50 (KK-47 cell line): 120 nM
- IC50 (A-375): 26 nM
- IC50 (MKN-45 (Homo sapiens)): 8.8 nM
- Inhibition ratio (Mus musculus [2]): 83%
- IC50 (QG-56): 45 nM
- Inhibition ratio (Mus musculus [3]): 76%
- IC50 (QG-96): 390 nM
- IC50 (L1210): 16 nM
- Inhibition ratio (Mus musculus [4]): 84%
- IC50 (PC-9): 110 nM
- IC50 (T-24): 28 nM
- IC50 (A-431): 33 nM
- Inhibition ratio (Mus musculus [5]): 75%
- IC50 (Lu-65): 32 nM
- IC50 (COLO 320DM): 20 nM
- IC50 (NCI-H417): 43 nM
- Inhibition ratio (Mus musculus [6]): 92%
- IC50 (NCI-H82 (Homo sapiens)): 120 nM
- IC50 (ST-KM-1): 47 nM
- Inhibition ratio (Mus musculus [7]): 55%
- IC50 (MKN-28): 210 nM
- IC50 (YMB-1-E): 160 nM
- IC50 (HOS): 1000 nM
- IC50 (NUGC-4): 24 nM
- Inhibition ratio (Mus musculus [8]): 80%
- Inhibition ratio (Mus musculus [9]): 78%
- IC50 [10]: 150 nM
- IC50 (PC-8): 90 nM
- IC50 (SW480): 260 nM
- IC50 (MCF7): 69 nM
- IC50 (PC10): 160 nM
- IC50 (MDA-MB-231): 24 nM
- IC50 (SW48): > 1900 nM
- IC50 [11]: 31 nM
- Inhibition ratio (Mus musculus [12]): 73%
- IC50 [13]: 15 nM
- IC50 [14]: 210 nM
- IC50 (QG-90): 130 nM
- IC50 (MG-63): 150 nM
- IC50 (HCT-15): 8.2 nM
